Experimental data taken from patent US11548870B2, “Compounds useful as inhibitors of helios protein” (Bristol-Myers Squibb Company, priority 2019, dated 2023).

Legend:
Helios = target: T1, Helios (Homo sapiens, UniProt Q96SW2+Q9UKS7); experiment: Helios Cellular Degradation Assay (flow cytometry, Helios-PE antibody staining, 72 h); format: cell-based; settings: Jurkat cells, 72 h incubation, flow cytometry; for Dmax: Jurkat, read-out: Helios Dmax
T1 construct: fluorescently labelled antibodies against Helios and Ikaros; endogenous in cells; host or cells: Jurkat cells
T1 sequence (Q9UKS7 whole entry): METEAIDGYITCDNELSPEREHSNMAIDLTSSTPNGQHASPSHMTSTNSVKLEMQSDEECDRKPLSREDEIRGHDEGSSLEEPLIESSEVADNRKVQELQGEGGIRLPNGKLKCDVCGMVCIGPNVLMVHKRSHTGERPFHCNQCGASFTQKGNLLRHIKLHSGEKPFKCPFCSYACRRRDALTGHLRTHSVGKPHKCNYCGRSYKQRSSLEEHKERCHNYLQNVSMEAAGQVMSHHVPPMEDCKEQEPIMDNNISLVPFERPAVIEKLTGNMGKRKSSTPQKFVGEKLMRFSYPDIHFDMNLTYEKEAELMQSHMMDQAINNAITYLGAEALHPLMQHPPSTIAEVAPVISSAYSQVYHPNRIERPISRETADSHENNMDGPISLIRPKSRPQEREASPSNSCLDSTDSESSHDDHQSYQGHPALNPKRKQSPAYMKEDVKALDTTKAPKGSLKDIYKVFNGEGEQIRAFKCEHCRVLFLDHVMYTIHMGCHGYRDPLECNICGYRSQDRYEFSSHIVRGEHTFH
T1 sequence (Q96SW2 whole entry): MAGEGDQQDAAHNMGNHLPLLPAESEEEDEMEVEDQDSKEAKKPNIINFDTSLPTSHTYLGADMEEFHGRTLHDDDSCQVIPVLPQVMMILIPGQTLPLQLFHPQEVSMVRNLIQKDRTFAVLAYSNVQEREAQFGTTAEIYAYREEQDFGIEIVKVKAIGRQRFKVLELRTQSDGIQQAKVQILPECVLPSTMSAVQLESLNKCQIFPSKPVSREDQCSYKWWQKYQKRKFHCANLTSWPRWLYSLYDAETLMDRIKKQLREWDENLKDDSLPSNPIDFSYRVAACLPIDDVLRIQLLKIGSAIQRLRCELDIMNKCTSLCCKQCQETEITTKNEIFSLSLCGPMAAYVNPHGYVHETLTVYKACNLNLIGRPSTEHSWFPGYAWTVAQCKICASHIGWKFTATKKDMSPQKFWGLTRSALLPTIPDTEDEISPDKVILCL
T1 sequence (Q16531 whole entry partner): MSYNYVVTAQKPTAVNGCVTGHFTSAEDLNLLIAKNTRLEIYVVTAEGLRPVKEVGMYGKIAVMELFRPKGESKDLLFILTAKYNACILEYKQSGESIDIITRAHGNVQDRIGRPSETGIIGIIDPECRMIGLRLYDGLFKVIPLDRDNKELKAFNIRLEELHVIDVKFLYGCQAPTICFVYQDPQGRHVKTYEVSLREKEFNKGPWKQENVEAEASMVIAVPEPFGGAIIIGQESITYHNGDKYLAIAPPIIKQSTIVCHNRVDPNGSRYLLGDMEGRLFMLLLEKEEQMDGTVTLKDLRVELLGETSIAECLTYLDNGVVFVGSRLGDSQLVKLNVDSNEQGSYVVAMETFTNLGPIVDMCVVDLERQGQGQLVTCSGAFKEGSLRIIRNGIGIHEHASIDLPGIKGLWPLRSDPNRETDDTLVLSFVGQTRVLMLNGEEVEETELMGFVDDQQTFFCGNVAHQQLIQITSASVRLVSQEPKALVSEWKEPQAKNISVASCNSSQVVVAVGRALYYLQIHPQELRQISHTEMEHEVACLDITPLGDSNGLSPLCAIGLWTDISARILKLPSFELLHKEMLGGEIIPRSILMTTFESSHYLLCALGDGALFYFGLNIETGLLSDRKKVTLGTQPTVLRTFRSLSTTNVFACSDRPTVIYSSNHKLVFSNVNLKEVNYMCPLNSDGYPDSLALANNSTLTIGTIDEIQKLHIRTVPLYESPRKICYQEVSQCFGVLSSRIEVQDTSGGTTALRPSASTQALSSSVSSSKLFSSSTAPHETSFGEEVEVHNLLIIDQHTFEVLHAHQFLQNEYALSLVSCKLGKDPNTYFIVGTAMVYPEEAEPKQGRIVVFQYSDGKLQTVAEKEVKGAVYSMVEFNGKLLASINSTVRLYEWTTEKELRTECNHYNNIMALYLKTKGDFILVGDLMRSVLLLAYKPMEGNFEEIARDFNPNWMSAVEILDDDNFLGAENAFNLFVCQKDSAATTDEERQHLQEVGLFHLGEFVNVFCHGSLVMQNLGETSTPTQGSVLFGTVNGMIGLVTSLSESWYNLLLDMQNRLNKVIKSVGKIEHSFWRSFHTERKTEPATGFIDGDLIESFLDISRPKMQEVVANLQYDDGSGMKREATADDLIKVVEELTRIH
Method: (§1) Helios Cellular Degradation Assay
(§2) Jurkat cells were plated at 80,000 cells/well in 40 μL RPMI+10% FBS in a 384 well cell culture plate prior to using acoustic dispensing technology for adding compound of interest. Cell cultures were incubated for 72 h at 37° C. and 5% CO2. In order to facilitate analysis, cell cultures were spun down at 200 rpm for 5 min and the supernatant was discarded. After shaking the plate to dislodge the cell pellet, cells were resuspended in 50 μL of Fixation Buffer (eBioScience FoxP3 buffer set 0000) for 60 min at room temperature. After centrifuging and discarding the supernatant, cells were permeabilized with 50 μL of Permeabilization buffer (eBioScience FoxP3 buffer set 00-5523-00) for 10 min at room temperature. Following permeabilization, cells were spun down and the supernatant was replaced with 20 μL fluorescently labelled antibodies against Helios and Ikaros or corresponding Isotype controls in 1× Permeabilization buffer (Ikaros-Alexa488 [Biolegend, Cat #368408, 1:50], Helios-PE [CST, Cat #29360, 1:50]) and staining reactions were incubated for 1 h at room temperature; protected from light. Subsequently, 30 μL of 1× Permeabilization buffer was added prior to centrifuging the cells and discarding the supernatant. Stained cells were resuspended in 25 μL of flow cytometry staining buffer (PBS+0.2% BSA) and analyzed using an Intellicyt Ique Plus flow cytometer.
as §2, with “00-5523-00)” for “0000)”

Ikaros = target: T2, Ikaros (Homo sapiens, UniProt Q13422); experiment: Helios Cellular Degradation Assay, Ikaros readout (flow cytometry, Ikaros-Alexa488 antibody staining, 72 h); format: cell-based; settings: Jurkat cells, 72 h incubation, flow cytometry; for Dmax: Jurkat, read-out: Ikaros Dmax
T2 construct: fluorescently labelled antibodies against Helios and Ikaros; endogenous in cells; host or cells: Jurkat cells
T2 sequence (Q96SW2 whole entry partner): as the sequence (Q96SW2 whole entry) above
T2 sequence (Q16531 whole entry partner): as the sequence (Q16531 whole entry partner) above
T2 sequence (Q13422 whole entry): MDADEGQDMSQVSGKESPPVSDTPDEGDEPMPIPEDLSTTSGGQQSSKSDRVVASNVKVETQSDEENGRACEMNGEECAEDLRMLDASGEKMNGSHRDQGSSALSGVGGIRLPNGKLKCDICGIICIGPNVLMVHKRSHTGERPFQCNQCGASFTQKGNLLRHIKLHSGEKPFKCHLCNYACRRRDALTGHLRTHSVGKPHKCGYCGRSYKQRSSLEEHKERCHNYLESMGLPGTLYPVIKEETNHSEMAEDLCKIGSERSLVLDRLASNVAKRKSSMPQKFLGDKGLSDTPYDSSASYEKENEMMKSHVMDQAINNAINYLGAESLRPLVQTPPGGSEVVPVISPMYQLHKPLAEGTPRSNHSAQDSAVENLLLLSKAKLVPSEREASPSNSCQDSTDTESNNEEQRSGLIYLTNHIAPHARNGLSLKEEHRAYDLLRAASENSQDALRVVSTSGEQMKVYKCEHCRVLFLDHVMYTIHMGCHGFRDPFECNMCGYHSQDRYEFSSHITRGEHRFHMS
Method: as §1, §2
as §2, with “00-5523-00)” for “0000)”

Row | Compound | DC50 (Helios) [µM] | Dmax (Helios) [%] | DC50 (Ikaros) [µM] | Dmax (Ikaros) [%] | Helios Dmax (Helios) [%] | Ikaros Dmax (Ikaros) [%]
1 | O=C1CCC(N2Cc3cc(-c4cc(CN5CCN(C(=O)C6CCCO6)CC5)ccn4)ccc3C2=O)C(=O)N1 (centres unmarked) [Example 32, 3-(1-oxo-5-(4-((4-(tetrahydrofuran-2-carbonyl)piperazin-1-yl)methyl)pyridin-2-yl)isoindolin-2-yl) piperidine-2,6-dione] | > 10 | 35 | > 10 | 23 |  | 
2 | CN(C)[C@H]1CCN(Cc2ccnc(-c3ccc4c(c3)CN(C3CCC(=O)NC3=O)C4=O)c2)C1 (stereo partly drawn) [Example 33, 3-(5-(4-(((S)-3-(dimethylamino)pyrrolidin-1-yl)methyl)pyridin-2-yl)-1-oxoisoindolin-2-yl)piperidine-2,6-dione] | > 10 | 50 | > 10 | 2 |  | 
3 | CN(CC(=O)N(C)C)Cc1ccnc(-c2ccc3c(c2)CN(C2CCC(=O)NC2=O)C3=O)c1 (centres unmarked) [Example 34, 2-(((2-(2-(2,6-dioxopiperidin-3-yl)-1-oxoisoindolin-5-yl)pyridin-4-yl)methyl)(methyl)amino)-N,N-dimethylacetamide] | > 10 | 26 | > 10 | 9 |  | 
4 | CN1CCN(Cc2ccnc(-c3ccc4c(c3)CN(C3CCC(=O)NC3=O)C4=O)c2)CC1 (centres unmarked) [Example 35, 3-(5-(4-((4-methylpiperazin-1-yl)methyl)pyridin-2-yl)-1-oxoisoindolin-2-yl)piperidine-2,6-dione] | 0.869 | 63 | > 10 | 30 |  | 
5 | O=C1CCC(N2Cc3cc(-c4cc(CN5CCN(Cc6ccccc6)CC5)ccn4)ccc3C2=O)C(=O)N1 (centres unmarked) [Example 36] | > 10 |  | > 10 |  | 11 | 14
6 | O=C1CN(Cc2ccnc(-c3ccc4c(c3)CN(C3CCC(=O)NC3=O)C4=O)c2)CCN1 (centres unmarked) [Example 37, 3-(1-oxo-5-(4-((3-oxopiperazin-1-yl)methyl)pyridin-2-yl)isoindolin-2-yl)piperidine-2,6-dione] | > 10 | 24 | > 10 | 10 |  | 
7 | O=C1CCC(N2Cc3cc(-c4cc(CN5CCC(Cc6ccccc6)CC5)ccn4)ccc3C2=O)C(=O)N1 (centres unmarked) [Example 38, 3-(5-(4-((4-benzylpiperidin-1-yl)methyl)pyridin-2-yl)-1-oxoisoindolin-2-yl)piperidine-2,6-dione] | 0.087 | 68 | > 10 | 6 |  | 
8 | O=C1CCC(N2Cc3cc(-c4cc(CN5CCc6ccccc6C5)ccn4)ccc3C2=O)C(=O)N1 (centres unmarked) [Example 39, 3-(5-(4-((3,4-dihydroisoquinolin-2(1H)-yl)methyl)pyridin-2-yl)-1-oxoisoindolin-2-yl)piperidine-2,6-dione] | 0.444 | 58 | > 10 | 6 |  | 
9 | CN(C)C1CCN(Cc2ccnc(-c3ccc4c(c3)CN(C3CCC(=O)NC3=O)C4=O)c2)CC1 (centres unmarked) [Example 40, 3-(5-(4-((4-(dimethylamino)piperidin-1-yl)methyl)pyridin-2-yl)-1-oxoisoindolin-2-yl)piperidine-2,6-dione] | > 10 | 9 | > 10 | 8 |  | 
10 | NC(=O)C1CCN(Cc2ccnc(-c3ccc4c(c3)CN(C3CCC(=O)NC3=O)C4=O)c2)CC1 (centres unmarked) [Example 41, 1-((2-(2-(2,6-dioxopiperidin-3-yl)-1-oxoisoindolin-5-yl)pyridin-4-yl)methyl)piperidine-4-carboxamide] | 0.727 | 80 | > 10 | 24 |  | 
11 | O=C1CCC(N2Cc3cc(-c4cc(CN5CCC(C(c6ccccc6)c6ccccc6)CC5)ccn4)ccc3C2=O)C(=O)N1 (centres unmarked) [Example 42, 3-(5-(4-((4-benzhydrylpiperidin-1-yl)methyl)pyridin-2-yl)-1-oxoisoindolin-2-yl)piperidine-2,6-dione] | > 10 | 3 | > 10 | 7 |  | 
12 | CN1CCCN(Cc2ccnc(-c3ccc4c(c3)CN(C3CCC(=O)NC3=O)C4=O)c2)CC1 (centres unmarked) [Example 43, 3-(5-(4-((4-methyl-1,4-diazepan-1-yl)methyl)pyridin-2-yl)-1-oxoisoindolin-2-yl) piperidine-2,6-dione] | > 10 | 10 | > 10 | 3 |  | 
13 | CC(C)N1CCN(Cc2ccnc(-c3ccc4c(c3)CN(C3CCC(=O)NC3=O)C4=O)c2)CC1 (centres unmarked) [Example 44, 3-(5-(4-((4-isopropylpiperazin-1-yl)methyl)pyridin-2-yl)-1-oxoisoindolin-2-yl)piperidine-2,6-dione] | > 10 | 36 | > 10 | 12 |  | 
14 | CN(C)[C@@H]1CCN(Cc2ccnc(-c3ccc4c(c3)CN(C3CCC(=O)NC3=O)C4=O)c2)C1 (stereo partly drawn) [Example 45, 3-(5-(4-(((R)-3-(dimethylamino)pyrrolidin-1-yl)methyl)pyridin-2-yl)-1-oxoisoindolin-2-yl)piperidine-2,6-dione] | > 10 | 43 | > 10 | 6 |  | 
15 | CC1CCN1Cc1ccnc(-c2ccc3c(c2)CN(C2CCC(=O)NC2=O)C3=O)c1 (centres unmarked) [Example 46, 3-(5-(4-((2-methylazetidin-1-yl)methyl)pyridin-2-yl)-1-oxoisoindolin-2-yl)piperidine-2,6-dione] | 0.018 | 83 | > 10 | 6 |  | 
16 | CC1CN(Cc2ccnc(-c3ccc4c(c3)CN(C3CCC(=O)NC3=O)C4=O)c2)C1 (centres unmarked) [Example 47, 3-(5-(4-((3-methylazetidin-1-yl)methyl)pyridin-2-yl)-1-oxoisoindolin-2-yl)piperidine-2,6-dione] | 0.017 | 79 | > 10 | 8 |  | 
17 | O=C1CCC(N2Cc3cc(-c4cc(CN5CCCCCC5)ccn4)ccc3C2=O)C(=O)N1 (centres unmarked) [Example 48, 3-(5-(4-(azepan-1-ylmethyl)pyridin-2-yl)-1-oxoisoindolin-2-yl)piperidine-2,6-dione] | 0.032 | 72 | > 10 | 6 |  | 
18 | CN1CCC(N(C)Cc2ccnc(-c3ccc4c(c3)CN(C3CCC(=O)NC3=O)C4=O)c2)C1 (centres unmarked) [Example 49, 3-(5-(4-((methyl(1-methylpyrrolidin-3-yl)amino)methyl)pyridin-2-yl)-1-oxoisoindolin-2-yl)piperidine-2,6-dione] | > 10 |  | > 10 |  | 29 | 3
19 | CCN(CC)Cc1ccnc(-c2ccc3c(c2)CN(C2CCC(=O)NC2=O)C3=O)c1 (centres unmarked) [Example 50, 3-(5-(4-((diethylamino)methyl)pyridin-2-yl)-1-oxoisoindolin-2-yl)piperidine-2,6-dione] | 0.022 | 78 | > 10 | 12 |  | 
20 | CC1(C)CN(Cc2ccnc(-c3ccc4c(c3)CN(C3CCC(=O)NC3=O)C4=O)c2)C1 (centres unmarked) [Example 51, 3-(5-(4-((3,3-dimethylazetidin-1-yl)methyl)pyridin-2-yl)-1-oxoisoindolin-2-yl)piperidine-2,6-dione] | 0.064 | 70 | > 10 | 11 |  | 
21 | CC1(C)CCN1Cc1ccnc(-c2ccc3c(c2)CN(C2CCC(=O)NC2=O)C3=O)c1 (centres unmarked) [Example 52, 3-(5-(4-((2,2-dimethylazetidin-1-yl)methyl)pyridin-2-yl)-1-oxoisoindolin-2-yl)piperidine-2,6-dione] | 0.3 | 67 | > 10 | 10 |  | 
22 | CC1CCCC(C)N1Cc1ccnc(-c2ccc3c(c2)CN(C2CCC(=O)NC2=O)C3=O)c1 (centres unmarked) [Example 53, 3-(5-(4-((2,6-dimethylpiperidin-1-yl)methyl)pyridin-2-yl)-1-oxoisoindolin-2-yl)piperidine-2,6-dione] | 0.231 | 77 | > 10 | 21 |  | 
23 | O=C1CCC(N2Cc3cc(-c4cc(CNCC5CCCCC5)ccn4)ccc3C2=O)C(=O)N1 (centres unmarked) [Example 54, 3-(5-(4-(((cyclohexylmethyl)amino)methyl)pyridin-2-yl)-1-oxoisoindolin-2-yl)piperidine-2,6-dione] | 0.016 | 83 | > 10 | 12 |  | 
